In ChEMBL document CHEMBL1201862, “PubChem BioAssay data set” (2004):
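Five concentrations, 48 hours, 96-well plates. Here, GI50 denotes the concentration required for 50% inhibition of growth.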 Active and inactive are the calls of the source. Rule as the data show it: active = GI50 up to about 1.1 µM and inactive = higher.

Tests used:
Assay in all cases: NCI-60 cell line screen, 48 h
A498 = test system: A498
A549 = test system: A549
BT-549 = test system: BT-549
CAKI-1 = test system: CAKI-1
CCRF-CEM = test system: CCRF-CEM
COLO 205 = test system: COLO 205
DU-145 = test system: DU-145
EKVX = test system: EKVX
HCC 2998 = test system: HCC 2998
HCT-116 = test system: HCT-116
HCT-15 = test system: HCT-15
HL-60 = test system: HL-60
HOP-62 = test system: HOP-62
HOP-92 = test system: HOP-92
HT-29 = test system: HT-29
Hs-578T = test system: Hs-578T
IGROV-1 = test system: IGROV-1
K562 = test system: K562
LOX IMVI = test system: LOX IMVI
M14 = test system: M14
MCF7 = test system: MCF7
MDA-MB-231 = test system: MDA-MB-231
MDA-MB-435 = test system: MDA-MB-435
MDA-N = test system: MDA-N
MOLT-4 = test system: MOLT-4
Malme-3M = test system: Malme-3M
NCI-H226 = test system: NCI-H226
NCI-H23 = test system: NCI-H23
NCI-H460 = test system: NCI-H460
NCI/ADR-RES = test system: NCI/ADR-RES
OVCAR-3 = test system: OVCAR-3
OVCAR-4 = test system: OVCAR-4
OVCAR-5 = test system: OVCAR-5
OVCAR-8 = test system: OVCAR-8
PC-3 = test system: PC-3
RXF 393 = test system: RXF 393
SF-268 = test system: SF-268
SF-295 = test system: SF-295
SF-539 = test system: SF-539
SK-MEL-28 = test system: SK-MEL-28
SK-MEL-2 = test system: SK-MEL-2
SK-MEL-5 = test system: SK-MEL-5
SK-OV-3 = test system: SK-OV-3
SN12C = test system: SN12C
SNB-19 = test system: SNB-19
SNB-75 = test system: SNB-75
SR = test system: SR
SW-620 = test system: SW-620
T47D = test system: T47D
TK-10 = test system: TK-10
U-251 = test system: U-251
UACC-257 = test system: UACC-257
UACC-62 = test system: UACC-62
UO-31 = test system: UO-31
786-0 = test system: 786-0
ACHN = test system: ACHN
KM12 = test system: KM12
RPMI-8226 = test system: RPMI-8226
NCI-H522 = test system: NCI-H522

## CO/N=C1/c2sccc2[C@H](NC(=O)CNC(=O)OC(C)(C)C)[C@@H]1O
A498
  GI50: > 100 µM (inactive)
A549
  GI50: > 100 µM (inactive)
BT-549
  GI50: > 100 µM (inactive)
CAKI-1
  GI50: > 100 µM (inactive)
CCRF-CEM
  GI50: > 100 µM (inactive)
COLO 205
  GI50: > 100 µM (inactive)
DU-145
  GI50: > 100 µM (inactive)
EKVX
  GI50: > 100 µM (inactive)
HCC 2998
  GI50: > 100 µM (inactive)
HCT-116
  GI50: > 100 µM (inactive)
HCT-15
  GI50: > 100 µM
HL-60
  GI50: > 100 µM (inactive)
HOP-62
  GI50: > 100 µM (inactive)
HOP-92
  GI50: > 100 µM (inactive)
HT-29
  GI50: > 100 µM (inactive)
Hs-578T
  GI50: > 100 µM (inactive)
IGROV-1
  GI50: > 100 µM (inactive)
K562
  GI50: > 100 µM (inactive)
LOX IMVI
  GI50: > 100 µM (inactive)
M14
  GI50: > 100 µM (inactive)
MCF7
  GI50: > 100 µM (inactive)
MDA-MB-231
  GI50: > 100 µM (inactive)
MDA-MB-435
  GI50: > 100 µM (inactive)
MDA-N
  GI50: > 100 µM (inactive)
MOLT-4
  GI50: > 100 µM (inactive)
Malme-3M
  GI50: > 100 µM (inactive)
NCI-H226
  GI50: > 100 µM (inactive)
NCI-H23
  GI50: > 100 µM (inactive)
NCI-H460
  GI50: > 100 µM (inactive)
NCI/ADR-RES
  GI50: > 100 µM (inactive)
OVCAR-3
  GI50: > 100 µM (inactive)
OVCAR-4
  GI50: > 100 µM (inactive)
OVCAR-5
  GI50: > 100 µM (inactive)
OVCAR-8
  GI50: > 100 µM (inactive)
PC-3
  GI50: > 100 µM (inactive)
RXF 393
  GI50: > 100 µM (inactive)
SF-268
  GI50: > 100 µM (inactive)
SF-295
  GI50: > 100 µM (inactive)
SF-539
  GI50: > 100 µM (inactive)
SK-MEL-28
  GI50: > 100 µM (inactive)
SK-MEL-2
  GI50: > 100 µM (inactive)
SK-MEL-5
  GI50: > 100 µM (inactive)
SK-OV-3
  GI50: > 100 µM (inactive)
SN12C
  GI50: > 100 µM (inactive)
SNB-19
  GI50: > 100 µM (inactive)
SNB-75
  GI50: > 100 µM (inactive)
SR
  GI50: > 100 µM (inactive)
SW-620
  GI50: > 100 µM (inactive)
T47D
  GI50: > 100 µM (inactive)
TK-10
  GI50: > 100 µM (inactive)
U-251
  GI50: > 100 µM (inactive)
UACC-257
  GI50: > 100 µM (inactive)
UACC-62
  GI50: > 100 µM (inactive)
UO-31
  GI50: > 100 µM (inactive)

## C=C(C)c1nc(C#N)c(N)o1
786-0
  GI50: > 100 µM (inactive)
A549
  GI50: > 100 µM (inactive)
ACHN
  GI50: > 100 µM (inactive)
BT-549
  GI50: > 100 µM (inactive)
CAKI-1
  GI50: > 100 µM (inactive)
CCRF-CEM
  GI50: > 100 µM (inactive)
COLO 205
  GI50: > 100 µM (inactive)
DU-145
  GI50: > 100 µM (inactive)
EKVX
  GI50: > 100 µM (inactive)
HCC 2998
  GI50: > 100 µM (inactive)
HCT-116
  GI50: > 100 µM (inactive)
HCT-15
  GI50: > 100 µM
HOP-62
  GI50: > 100 µM (inactive)
HT-29
  GI50: > 100 µM (inactive)
Hs-578T
  GI50: > 100 µM (inactive)
IGROV-1
  GI50: 36.3 µM (inactive)
K562
  GI50: > 100 µM (inactive)
KM12
  GI50: > 100 µM (inactive)
LOX IMVI
  GI50: > 100 µM (inactive)
M14
  GI50: > 100 µM (inactive)
MCF7
  GI50: > 100 µM (inactive)
MDA-MB-231
  GI50: > 100 µM (inactive)
MDA-MB-435
  GI50: > 100 µM (inactive)
MDA-N
  GI50: > 100 µM (inactive)
MOLT-4
  GI50: > 100 µM (inactive)
Malme-3M
  GI50: > 100 µM (inactive)
NCI-H226
  GI50: > 100 µM (inactive)
NCI-H23
  GI50: > 100 µM (inactive)
NCI-H460
  GI50: > 100 µM (inactive)
NCI/ADR-RES
  GI50: > 100 µM (inactive)
OVCAR-3
  GI50: > 100 µM (inactive)
OVCAR-4
  GI50: > 100 µM (inactive)
OVCAR-5
  GI50: > 100 µM (inactive)
OVCAR-8
  GI50: > 100 µM (inactive)
PC-3
  GI50: > 100 µM (inactive)
RPMI-8226
  GI50: > 100 µM (inactive)
RXF 393
  GI50: > 100 µM (inactive)
SF-268
  GI50: > 100 µM (inactive)
SF-295
  GI50: > 100 µM (inactive)
SF-539
  GI50: > 100 µM (inactive)
SK-MEL-28
  GI50: > 100 µM (inactive)
SK-MEL-2
  GI50: > 100 µM (inactive)
SK-MEL-5
  GI50: > 100 µM (inactive)
SK-OV-3
  GI50: > 100 µM (inactive)
SN12C
  GI50: > 100 µM (inactive)
SNB-19
  GI50: > 100 µM (inactive)
SR
  GI50: > 100 µM (inactive)
SW-620
  GI50: > 100 µM (inactive)
T47D
  GI50: > 100 µM (inactive)
TK-10
  GI50: > 100 µM (inactive)
U-251
  GI50: > 100 µM (inactive)
UACC-257
  GI50: > 100 µM (inactive)
UO-31
  GI50: > 100 µM (inactive)

## COc1ccc(NC(=S)NNC(=O)c2cc(-c3ccccc3)nc3ccccc23)cc1
786-0
  GI50: 17.9 µM (inactive)
A498
  GI50: 14.3 µM (inactive)
A549
  GI50: 17.7 µM (inactive)
ACHN
  GI50: 22.1 µM (inactive)
BT-549
  GI50: 14.1 µM (inactive)
CAKI-1
  GI50: 23.4 µM (inactive)
CCRF-CEM
  GI50: 12.9 µM (inactive)
COLO 205
  GI50: 31.8 µM (inactive)
DU-145
  GI50: 18.1 µM (inactive)
HCC 2998
  GI50: 12.1 µM (inactive)
HCT-116
  GI50: 12.4 µM (inactive)
HCT-15
  GI50: 12.3 µM
HOP-62
  GI50: 15.1 µM (inactive)
HOP-92
  GI50: 10.6 µM (inactive)
HT-29
  GI50: 19.9 µM (inactive)
Hs-578T
  GI50: 24 µM (inactive)
IGROV-1
  GI50: 26.5 µM (inactive)
K562
  GI50: 15.7 µM (inactive)
KM12
  GI50: 16.1 µM (inactive)
M14
  GI50: 15.4 µM (inactive)
MCF7
  GI50: 0.568 µM (active)
MDA-MB-231
  GI50: 22.5 µM (inactive)
MDA-MB-435
  GI50: 2.95 µM (inactive)
MDA-N
  GI50: 4.03 µM (inactive)
MOLT-4
  GI50: 19.7 µM (inactive)
Malme-3M
  GI50: 11.2 µM (inactive)
NCI-H226
  GI50: 20.1 µM (inactive)
NCI-H23
  GI50: 13.6 µM (inactive)
NCI-H460
  GI50: 16.1 µM (inactive)
NCI-H522
  GI50: 17.1 µM (inactive)
NCI/ADR-RES
  GI50: 12.3 µM (inactive)
OVCAR-3
  GI50: 12 µM (inactive)
OVCAR-4
  GI50: 19.3 µM (inactive)
OVCAR-5
  GI50: 20.8 µM (inactive)
OVCAR-8
  GI50: 17.2 µM (inactive)
PC-3
  GI50: 19.2 µM (inactive)
RPMI-8226
  GI50: 11.4 µM (inactive)
RXF 393
  GI50: 13.9 µM (inactive)
SF-268
  GI50: 26.1 µM (inactive)
SF-295
  GI50: 3.5 µM (inactive)
SF-539
  GI50: 13.2 µM (inactive)
SK-MEL-28
  GI50: 10.4 µM (inactive)
SK-MEL-2
  GI50: 16 µM (inactive)
SK-MEL-5
  GI50: 11.4 µM (inactive)
SK-OV-3
  GI50: 0.479 µM (active)
SN12C
  GI50: 18.6 µM (inactive)
SNB-19
  GI50: 23.9 µM (inactive)
SNB-75
  GI50: 16.1 µM (inactive)
SR
  GI50: 2.81 µM (inactive)
SW-620
  GI50: 14.6 µM (inactive)
T47D
  GI50: 14.9 µM (inactive)
TK-10
  GI50: 15.8 µM (inactive)
U-251
  GI50: 15.5 µM (inactive)
UACC-257
  GI50: 18.4 µM (inactive)
UACC-62
  GI50: 11.5 µM (inactive)
UO-31
  GI50: 11.4 µM (inactive)
